Measured values published in patent US20230066011A1, “PYRROLOPYRIMIDINE DERIVATIVE, AND PHARMACEUTICAL COMPOSITION FOR PREVENTING OR TREATING PROTEIN KINASE-RELATED DISEASE COMPRISING SAME AS ACTIVE INGREDIENT” (VORONOI CO., LTD., priority 2019, published 2023).

Columns and labels:
SHP-77 = assay: Inhibition of proliferation of SHP-77 cancer cells (Cell Titer-Glo); assay type: cell-based; conditions: Homo sapiens, SHP77, 72 hours
Method in brief: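 A 72-hour treatment with compound (eleven final concentrations, 3-fold apart, top 10 μM) of cells seeded at 2,000 per well preceded a Cell Titer-Glo luminescence read, from which GI50 was obtained.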

LRRK2 = LRRK2 (Homo sapiens, UniProt Q5S007); assay: Kinase HotSpot service (Reaction Biology Corporation), LRRK2; assay type: biochemical; set-up: purchased DiscoverX Corp. (ScanMAX Kinase analysis panel, service); conditions: ATP 10 uM, read-out: LRRK2 IC50 (values indicated by *)
Chain of LRRK2 (Q5S007 whole entry): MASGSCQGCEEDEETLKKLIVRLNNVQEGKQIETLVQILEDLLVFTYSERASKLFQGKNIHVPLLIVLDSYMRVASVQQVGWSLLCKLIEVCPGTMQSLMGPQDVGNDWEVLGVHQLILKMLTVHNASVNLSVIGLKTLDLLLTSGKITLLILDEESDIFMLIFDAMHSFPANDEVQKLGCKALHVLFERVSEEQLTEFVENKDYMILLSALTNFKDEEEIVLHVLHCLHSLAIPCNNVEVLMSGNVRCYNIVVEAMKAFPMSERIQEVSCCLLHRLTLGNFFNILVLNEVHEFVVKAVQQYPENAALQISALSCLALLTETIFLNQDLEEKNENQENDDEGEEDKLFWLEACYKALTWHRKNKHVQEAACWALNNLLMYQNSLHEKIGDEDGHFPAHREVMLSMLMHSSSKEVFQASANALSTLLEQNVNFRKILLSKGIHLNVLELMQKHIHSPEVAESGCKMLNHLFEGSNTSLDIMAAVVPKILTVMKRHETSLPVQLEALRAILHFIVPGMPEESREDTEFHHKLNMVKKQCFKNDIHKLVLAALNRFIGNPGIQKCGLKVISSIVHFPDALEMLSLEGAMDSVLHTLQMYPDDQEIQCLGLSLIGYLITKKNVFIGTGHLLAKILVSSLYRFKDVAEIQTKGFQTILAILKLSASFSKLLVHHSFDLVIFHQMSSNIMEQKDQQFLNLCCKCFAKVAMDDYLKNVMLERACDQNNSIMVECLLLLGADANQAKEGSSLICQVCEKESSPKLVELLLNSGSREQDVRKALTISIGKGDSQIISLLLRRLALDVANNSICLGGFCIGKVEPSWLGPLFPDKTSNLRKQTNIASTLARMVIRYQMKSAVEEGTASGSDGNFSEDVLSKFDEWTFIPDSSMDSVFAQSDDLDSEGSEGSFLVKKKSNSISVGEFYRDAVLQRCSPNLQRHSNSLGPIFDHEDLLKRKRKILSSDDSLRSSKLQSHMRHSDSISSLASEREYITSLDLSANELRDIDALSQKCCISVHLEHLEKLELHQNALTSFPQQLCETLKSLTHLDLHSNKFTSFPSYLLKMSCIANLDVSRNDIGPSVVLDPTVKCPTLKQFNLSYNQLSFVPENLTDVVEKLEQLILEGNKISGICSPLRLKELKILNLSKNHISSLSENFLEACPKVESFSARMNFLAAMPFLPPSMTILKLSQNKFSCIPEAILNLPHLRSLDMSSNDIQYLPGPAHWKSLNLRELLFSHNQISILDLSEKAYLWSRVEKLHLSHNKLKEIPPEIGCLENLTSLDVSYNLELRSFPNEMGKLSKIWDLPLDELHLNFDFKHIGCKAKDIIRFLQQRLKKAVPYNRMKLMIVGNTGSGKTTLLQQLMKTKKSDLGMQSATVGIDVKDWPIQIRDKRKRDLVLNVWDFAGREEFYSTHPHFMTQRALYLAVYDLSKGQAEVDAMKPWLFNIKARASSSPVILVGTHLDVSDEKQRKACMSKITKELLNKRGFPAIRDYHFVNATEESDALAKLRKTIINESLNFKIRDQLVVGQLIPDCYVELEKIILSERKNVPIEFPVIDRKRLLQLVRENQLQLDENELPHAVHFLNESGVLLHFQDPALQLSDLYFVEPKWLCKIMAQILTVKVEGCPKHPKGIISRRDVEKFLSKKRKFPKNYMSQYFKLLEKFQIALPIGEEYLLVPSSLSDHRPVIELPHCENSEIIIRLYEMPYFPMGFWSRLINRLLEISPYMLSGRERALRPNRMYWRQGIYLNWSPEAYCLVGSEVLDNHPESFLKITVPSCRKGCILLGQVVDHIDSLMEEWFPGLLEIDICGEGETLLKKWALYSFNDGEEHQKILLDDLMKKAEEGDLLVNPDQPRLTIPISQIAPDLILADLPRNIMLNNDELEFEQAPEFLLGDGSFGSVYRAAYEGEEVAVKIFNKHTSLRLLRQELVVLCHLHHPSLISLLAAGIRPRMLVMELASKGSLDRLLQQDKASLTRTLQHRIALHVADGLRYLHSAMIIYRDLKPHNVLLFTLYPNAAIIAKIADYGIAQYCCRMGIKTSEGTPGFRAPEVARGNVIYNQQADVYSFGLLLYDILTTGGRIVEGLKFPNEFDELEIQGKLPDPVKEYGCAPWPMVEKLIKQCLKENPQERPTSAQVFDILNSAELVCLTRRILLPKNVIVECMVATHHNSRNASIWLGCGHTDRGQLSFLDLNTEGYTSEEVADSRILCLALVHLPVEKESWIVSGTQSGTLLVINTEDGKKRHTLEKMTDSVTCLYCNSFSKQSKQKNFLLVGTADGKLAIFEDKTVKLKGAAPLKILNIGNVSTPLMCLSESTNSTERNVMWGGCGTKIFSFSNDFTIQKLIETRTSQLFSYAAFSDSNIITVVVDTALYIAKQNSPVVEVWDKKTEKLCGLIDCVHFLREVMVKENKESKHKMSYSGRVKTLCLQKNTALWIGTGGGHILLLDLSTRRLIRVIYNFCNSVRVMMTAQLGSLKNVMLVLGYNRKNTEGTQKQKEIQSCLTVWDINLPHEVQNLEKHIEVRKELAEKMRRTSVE
Procedure: (§1) The inhibitory activities of the compounds were measured at a 3-fold concentration gradient starting from a maximum compound concentration of […], and the values measured using the Kinase HotSpot service (Reaction Biology Corporation) are indicated by an asterisk (*).
(§2) All the experimental methods were performed as provided by the Kinase HotSpot Customer Protocol (http://www.reactionbiology.com//Kinase_Assay_Protocol).

CLK1 = biological target: T1, CLK1 (Homo sapiens, UniProt P49759); assay: Kinase HotSpot service (Reaction Biology Corporation), CLK1; assay type: biochemical; conditions: ATP 10 uM, read-out: CLK1 IC50 (values indicated by *)
T1 construct: purchased DiscoverX Corp. (ScanMAX Kinase analysis panel, service)
T1 sequence (P49759 whole entry): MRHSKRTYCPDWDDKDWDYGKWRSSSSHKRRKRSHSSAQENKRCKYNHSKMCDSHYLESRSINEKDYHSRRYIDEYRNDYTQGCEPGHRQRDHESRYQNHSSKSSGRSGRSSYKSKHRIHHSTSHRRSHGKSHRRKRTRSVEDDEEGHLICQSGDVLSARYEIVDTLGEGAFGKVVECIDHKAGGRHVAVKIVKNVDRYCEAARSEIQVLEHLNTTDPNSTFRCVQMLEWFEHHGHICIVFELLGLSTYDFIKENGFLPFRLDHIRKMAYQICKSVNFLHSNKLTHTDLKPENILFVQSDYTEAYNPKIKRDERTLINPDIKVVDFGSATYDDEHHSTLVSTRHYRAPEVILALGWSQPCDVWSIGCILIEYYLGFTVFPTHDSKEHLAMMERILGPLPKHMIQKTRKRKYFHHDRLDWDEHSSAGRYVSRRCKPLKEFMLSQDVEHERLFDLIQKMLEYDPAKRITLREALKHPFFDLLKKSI
Procedure: as §1, §2

THP-1 cells = assay: THP-1 GI50 (Table 4, cytokine secretion experiment); assay type: cell-based; conditions: Homo sapiens

GI50 (SHP-77) | IC50 (LRRK2) | IC50 (CLK1) | GI50 (THP-1 cells) | Structure (SMILES)
301 to 1000 nM | < 100 nM |  |  | CNc1nc(Nc2ccc(S(=O)(=O)N3CCC(N4CCOCC4)CC3)cc2OC)nc2[nH]cc(C(F)(F)F)c12 [Example 157, N^2-(2-methoxy-4-((4-morpholinopiperidin-1-yl)sulfonyl)phenyl)-N^4-methyl-5-(trifluoromethyl)-7H-pyrrolo[2,3-d]pyrimidine-2,4-diamine 2,2,2-trifluoroacetate]
51 to 100 nM |  |  |  | CCNc1nc(Nc2ccc(S(=O)(=O)N3CCC(N4CCOCC4)CC3)cc2OC)nc2[nH]cc(C(F)(F)F)c12 [Example 158, N^4-ethyl-N^2-(2-methoxy-4-((4-morpholinopiperidin-1-yl)sulfonyl)phenyl)-5-(trifluoromethyl)-7H-pyrrolo[2,3-d]pyrimidine-2,4-diamine 2,2,2-trifluoroacetate]
301 to 1000 nM |  | < 100 nM |  | CCCNc1nc(Nc2ccc(S(=O)(=O)N3CCC(N4CCOCC4)CC3)cc2OC)nc2[nH]cc(C(F)(F)F)c12 [Example 161, N^2-(2-methoxy-4-((4-morpholinopiperidin-1-yl)sulfonyl)phenyl)-N^4-propyl-5-(trifluoromethyl)-7H-pyrrolo[2,3-d]pyrimidine-2,4-diamine]
 |  |  | 13600 nM | COCCNc1nc(Nc2ccc(C(=O)N3CCC(N4CCOCC4)CC3)c3c2OCC3)nc2[nH]cc(C#N)c12 [Example 359, 4-((2-methoxy-ethyl)ami-no)-2-((4-(4-morpholino-piperidine-1-carbonyl)-2,3-dihydro-benzofuran-7-yl)amino)-7H-pyrrolo[2,3-d]pyrimidine-5-carbonitrile]
 |  |  | 40400 nM | COCCNc1nc(Nc2ccc(C(=O)N3CCN(C4COC4)CC3)c3c2OCCO3)nc2[nH]cc(C(F)(F)F)c12 [Example 403, (8-((4-((2-methoxyethyl)-amino)-5-(trifluoromethyl)-7H-pyrrolo[2,3-d]pyrimidin-2-yl)amino)-2,3-dihydrobenzo[b] [1,4]dioxin-5-yl) (4-(oxetan-3-yl)piperazin-1-yl)methanone]
 |  |  | 4160 nM | O=C(c1ccc(Nc2nc(NC3CCCC3)c3c(C(F)(F)F)c[nH]c3n2)c2c1OCCO2)N1CCN(C2COC2)CC1 [Example 414, (8-((4-(cyclopentyl-amino)-5-(trifluoromethyl)-7H-pyrrolo[2,3-d]pyrimidin-2-yl)amino)-2,3-dihydrobenzo[b] [1,4]dioxin-5-yl) (4-(oxetan-3-yl)piperazin-1-yl)methanone]
 | < 100 nM | < 100 nM |  | COc1cc(S(=O)(=O)N2CCC(N3C[C@H]4C[C@@H]3CO4)CC2)ccc1Nc1nc(C2CC2)c2c(C(F)(F)F)c[nH]c2n1 [Example 473, N-(4-((4-((1R,4R)-2-oxa-5-azabicyclo[2.2.1]heptan-5-yl)piperidin-1-yl)sulfonyl)-2-methoxyphenyl)-4-cyclopropyl-5-(trifluoromethyl)-7H-pyrrolo[2,3-d]pyrimidin-2-amine]
